The numbers were not newly measured in US9700048B2, “Agroformulation comprising copolymer of vinyllactam, N-alkyl acrylamide, and alkyl (meth)acrylate” (BASF SE, priority 2012, dated 2017), which cites them from elsewhere.

For this data set the following is noted: at 20° C.

Values after ≈ are worked out from the molar mass of the structure shown.

`Cn1cc(C(=O)Nc2ccccc2-c2cc(F)c(F)c(F)c2)c(C(F)F)n1` [fluxapyroxad]: the solubility in water is 3.88 µg/mL (≈ 10.2 µM).
